# Source: patent publication US20260007684A1, “AMIDE DERIVATIVES FOR INHIBITING NLRP3 AND USES THEREOF” (Ventus Therapeutics U.S., Inc., priority 2023, published 2026)
# Where two headings read alike, the source gives them in different places.
# How the values were obtained:
# [1] = target: mouse NLRP3 (Mus musculus (Mouse), UniProt Q8R4B8); assay: Mouse Whole Blood (mWB) NLRP3 Assay (LPS/ATP, IL-1b); format: cell-based
# Method: Reagents: The following reagents were used: blood collection tubes (Heparin); U-bottom 96-well tissue culture (Falcon 353077); HBSS for LPS, ATP and compound dilutions (Gibco 24020-117); and LPS, E. coli serotype 026:B6 (Sigma L-2654).
# Mouse IL-1b MSD assay: Blood was drawn from female CD1 mice (9 to 10 weeks) by cardiac puncture. Blood was plated (135 μL) per well in 96-well U-bottom plates. 7.5 μL of 20×LPS (20 μg/mL, final concentration of 1 μg/mL) was added and mixed by gentle pipetting, and the mixture was incubated in a TC incubator for five hours. 7.5 μL of 20× compound or vehicle per well was added and mixed by gentle pipetting. Compounds were diluted 1/50 in HBSS to prepare a 20× dilution curve in […].
# The mixture was incubated for 30 minutes in a TC incubator with shaking (450 rpm). 5 μl of 31×ATP (155 mM, final concentration of 5 mM) was added and mixed by gentle pipetting. The mixture was incubated in a TC incubator for 30 minutes with shaking (450 rpm). The plate was centrifuged for 10 minutes at 800×g and −70 μL of plasma was removed. Plasma was frozen if required. Mouse IL-1b was analyzed with IL-1b MSD assay (K152TUK).
# Compounds were added 30 minutes before priming the cells with LPS when TNFα was required to be quantified in the cytokine panel to confirm selectivity.
# [2] = target: T1, human NLRP3 (Homo sapiens (Human), UniProt Q96P20); assay: Human Whole Blood (hWB) NLRP3 Assay (LPS/ATP, IL-1β); format: cell-based; conditions: for IC50: read-out: hWB IC50
# [3] = target: T1, human NLRP3; assay: Human PBMC NLRP3 Assay (LPS priming, ATP stimulation, cytokine measurement); format: cell-based; conditions: for IC50: read-out: PBMC IC50
# [4] = target: T1, human NLRP3; assay: Scintillation Proximity (SPA) NLRP3 Assay: displacement of 3H-MCC950; format: binding; conditions: for IC50: read-out: SPA IC50
# T1 sequence (Q96P20 whole entry): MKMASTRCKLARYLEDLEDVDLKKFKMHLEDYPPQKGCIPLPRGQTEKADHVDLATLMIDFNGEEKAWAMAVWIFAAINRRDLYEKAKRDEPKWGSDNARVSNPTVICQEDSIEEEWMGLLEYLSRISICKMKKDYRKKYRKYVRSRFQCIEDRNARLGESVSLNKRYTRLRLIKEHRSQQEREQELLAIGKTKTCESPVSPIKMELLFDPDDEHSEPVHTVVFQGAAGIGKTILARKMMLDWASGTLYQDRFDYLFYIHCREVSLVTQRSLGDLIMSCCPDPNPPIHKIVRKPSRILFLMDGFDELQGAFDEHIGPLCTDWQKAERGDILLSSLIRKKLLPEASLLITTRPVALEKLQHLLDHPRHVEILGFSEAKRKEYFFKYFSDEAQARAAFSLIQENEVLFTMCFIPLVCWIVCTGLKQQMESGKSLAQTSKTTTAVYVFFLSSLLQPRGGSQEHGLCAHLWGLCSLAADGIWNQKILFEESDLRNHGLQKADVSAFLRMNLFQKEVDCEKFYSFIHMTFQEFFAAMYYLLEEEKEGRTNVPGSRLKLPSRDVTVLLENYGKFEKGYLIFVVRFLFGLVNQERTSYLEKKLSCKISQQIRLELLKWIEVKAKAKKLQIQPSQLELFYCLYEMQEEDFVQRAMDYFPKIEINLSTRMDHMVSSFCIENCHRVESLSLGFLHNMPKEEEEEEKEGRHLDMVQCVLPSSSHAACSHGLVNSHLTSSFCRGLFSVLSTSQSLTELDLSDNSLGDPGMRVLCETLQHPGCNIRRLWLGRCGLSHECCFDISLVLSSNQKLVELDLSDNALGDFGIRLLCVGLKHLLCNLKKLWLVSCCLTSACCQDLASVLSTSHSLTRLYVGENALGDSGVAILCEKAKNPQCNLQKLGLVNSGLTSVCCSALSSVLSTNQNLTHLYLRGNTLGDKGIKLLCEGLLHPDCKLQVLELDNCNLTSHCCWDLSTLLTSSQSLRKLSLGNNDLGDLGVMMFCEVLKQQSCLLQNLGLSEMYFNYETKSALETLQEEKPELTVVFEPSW
# Sequence of mouse NLRP3 (Q8R4B8 whole entry): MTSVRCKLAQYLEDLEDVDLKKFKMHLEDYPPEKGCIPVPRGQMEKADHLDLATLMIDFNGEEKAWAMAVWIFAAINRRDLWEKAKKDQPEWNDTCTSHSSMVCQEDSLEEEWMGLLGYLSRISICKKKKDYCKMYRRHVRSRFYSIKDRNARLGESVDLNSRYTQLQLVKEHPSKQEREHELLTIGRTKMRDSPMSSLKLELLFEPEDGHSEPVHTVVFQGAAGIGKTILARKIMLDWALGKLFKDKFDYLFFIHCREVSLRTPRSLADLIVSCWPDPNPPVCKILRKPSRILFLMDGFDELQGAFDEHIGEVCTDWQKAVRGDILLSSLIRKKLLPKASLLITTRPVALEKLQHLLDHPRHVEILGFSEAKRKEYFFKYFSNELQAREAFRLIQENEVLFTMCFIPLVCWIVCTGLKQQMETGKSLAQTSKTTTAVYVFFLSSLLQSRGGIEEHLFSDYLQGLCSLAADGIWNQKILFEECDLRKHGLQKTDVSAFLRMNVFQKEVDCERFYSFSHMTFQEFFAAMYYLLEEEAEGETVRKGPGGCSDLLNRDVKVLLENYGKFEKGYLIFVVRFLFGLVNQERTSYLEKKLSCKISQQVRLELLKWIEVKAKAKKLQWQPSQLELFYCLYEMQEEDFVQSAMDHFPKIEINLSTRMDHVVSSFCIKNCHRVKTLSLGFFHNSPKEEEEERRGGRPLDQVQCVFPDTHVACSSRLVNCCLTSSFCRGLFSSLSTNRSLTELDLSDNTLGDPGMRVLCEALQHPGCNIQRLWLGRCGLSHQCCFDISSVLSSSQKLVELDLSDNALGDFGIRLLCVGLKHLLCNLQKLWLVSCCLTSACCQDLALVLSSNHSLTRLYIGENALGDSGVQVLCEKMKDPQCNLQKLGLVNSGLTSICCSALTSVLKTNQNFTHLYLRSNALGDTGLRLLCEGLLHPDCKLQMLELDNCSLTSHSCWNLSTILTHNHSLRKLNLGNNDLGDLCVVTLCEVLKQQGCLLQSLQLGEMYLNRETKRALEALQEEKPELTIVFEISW
smiles,measurement,setting,value
"O=C(N[C@@H]1CCCCN(c2nnn[nH]2)C1)C1(c2ccc(Cl)cc2)CC1 [Compound 51A, 1-(4-chlorophenyl)-N-[(3R)-1-(1H-tetrazol-5-yl)azepan-3-yl]cyclopropanecarboxamide]",IC50,[1],1800 nM
same,IC50,"[1]; mouse whole blood, LPS/ATP, IL-1b",1000 to 2000 nM
same,IC50,"[2]; human whole blood, LPS/ATP, IL-1β",< 1000 nM
same,IC50,[2],720 nM
same,fold increase in potency as measured by hWB IC50,[2]; relative to Compound 10A,> 10 fold
same,IC50,"[3]; human PBMC, LPS priming, ATP stimulation",10 to 100 nM
same,IC50,[3],44 nM
same,fold increase in potency as measured by PBMC IC50,[3]; relative to Compound 10A,48 fold
same,IC50,[4]; displacement of 3H-MCC950,1000 to 10000 nM
same,IC50,[4],2200 nM
same,fold increase in binding activity (SPA IC50),[4]; relative to Compound 10A,> 4 fold
